Measured values reported in US20120196854A1, “PHARMACEUTICAL COMPOSITION COMPRISING AROMATIC HETEROCYCLIC COMPOUND” (Kyowa Hakko Kirin Co., Ltd., priority 2009, published 2012).

Legend:
mdx mice = assay: Myodegeneration in spontaneous muscular dystrophy model (mdx) mice; type: in vivo, mouse; settings: in drinking water, about 30 mg/kg
Experimental: mdx Mice (C57BL/10ScSn-Dmd^mdx) were purchased in male and female pairs from Jackson Laboratories, and bred in-house for use. After weaned at 3 weeks old, male mdx mice were selected, which were subjected to the test from 4 weeks old. Compound 133 was dissolved in MEYLON 84 (registered trademark, 8.4% sodium bicarbonate injection, Otsuka) to prepare 12 mL of a 3 mg/mL solution thereof. This was added to and mixed with 188 mL of sterile tap water (final concentration of the compound: 180 μg/mL), and the mixture was administered by unrestricted intake (actual dose of the compound was about 30 mg/kg). […]
As evaluation of the diaphragm muscle, the degenerated and/or necrotic muscle area ratio of the diaphragm was determined. […] The thus prepared specimen was digitally shot at 20-fold magnification using a digital microscope (VHX-1000, KEYENCE, Osaka) and the images were recorded in TIFF format. Using the nature that degenerated and/or necrotic muscle absorbs EB and turns blue (J. Anat., 2002, 200, 69-79), the area of the diaphragm piece and the area of blue region showing the distribution of degenerated and/or necrotic muscle were determined with an image analyzer (LUZEX AP, Nireco, Tokyo). […]
For evaluation of the posterior crural muscle, the degenerated and/or necrotic muscle area ratio of the gastrocnemius muscle was determined. […]

cyclooxygenase-2 (COX-2) = molecular target: T1, cyclooxygenase-2 (COX-2) (Homo sapiens, UniProt P35354); assay: Inhibition of COX-2 enzyme activity; type: biochemical; settings: at a concentration of 10 μmol/L; read-out: inhibitory rate, COX-2
T1 sequence (P35354 18-604): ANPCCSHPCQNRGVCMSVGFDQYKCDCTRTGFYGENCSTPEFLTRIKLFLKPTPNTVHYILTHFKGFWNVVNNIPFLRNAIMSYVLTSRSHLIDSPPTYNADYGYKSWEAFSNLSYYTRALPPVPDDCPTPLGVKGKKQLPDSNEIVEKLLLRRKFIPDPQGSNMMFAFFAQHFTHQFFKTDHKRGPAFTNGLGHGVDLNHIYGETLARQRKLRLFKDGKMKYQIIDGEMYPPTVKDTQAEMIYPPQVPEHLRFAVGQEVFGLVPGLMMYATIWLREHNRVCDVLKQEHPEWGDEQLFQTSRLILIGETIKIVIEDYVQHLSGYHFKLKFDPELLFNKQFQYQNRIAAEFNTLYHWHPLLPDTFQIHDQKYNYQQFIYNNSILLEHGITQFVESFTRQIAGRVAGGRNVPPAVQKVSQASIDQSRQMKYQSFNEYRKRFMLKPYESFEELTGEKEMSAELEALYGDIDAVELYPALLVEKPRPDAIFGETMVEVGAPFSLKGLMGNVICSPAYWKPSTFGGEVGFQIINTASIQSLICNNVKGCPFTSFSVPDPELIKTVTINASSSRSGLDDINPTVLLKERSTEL

O=C(O)c1cc(-c2ccco2)nc2ccc3nn(-c4ccccc4)nc3c12 [Compound 133, 7-(furan-2-yl)-2-phenyl-2H-[1,2,3]triazolo[4,5-f]quinoline-9-carboxylic acid]
inhibition of degeneration and/or necrosis of the diaphragm (mdx mice): 40% | inhibition of degeneration and/or necrosis of the gastrocnemius muscle (mdx mice): 49% | inhibition at 10 µM (cyclooxygenase-2 (COX-2)): ≤ 20%
